# Where a name gives a salt, the structure may show the parent alone. Marks after values point to notes of the source that are not given here. Non-standard residues stand in square brackets, D forms with d. Residues, ends and D or L forms follow the SMILES beside them. No end group written: not given here. *: point of attachment. X5 = [N-]=[N+]=N[C@@H](CCCCCN)C(=O)*; X2 = C[C@@H](CCC[N+](C)(C)C)C(=O)*; Tle = CC(C)(C)[C@H](N)C(=O)O; hLys = NCCCCC[C@H](N)C(=O)O; X1 = C[C@@H](CCCCCN)C(=O)*; Orn = NCCC[C@H](N)C(=O)O
# Experiments:
# rats [1] = test: Catalepsy, horizontal bar test; details: IP 1 mg/kg, cut-off 30 sec
# Protocol: (§3) Cataleptic Analysis. […] To circumvent these potential confounding factors, tests are performed on an animal only once in a quiet, controlled environment.
# (§4) Catalepsy Assessment. […] Rats were given an IP injection of peptide (5 mg/Kg), saline, or haloperidol (1 mg/kg). After 3 hours, catalepsy was measured using the horizontal bar test. Briefly, the front paws were placed directly on a horizontal bar 5 mm in diameter placed 7.5 cm above the cage floor. The rat was held in this position for 3 sec and then released. The time from release until the paws return to the cage floor was measured and recorded. A cut-off time of 30 sec was observed; this indicated a fully cataleptic animal as cataleptic animals are frozen to the bar. […] Measures were repeated every 30 min for 4 hr. Data are means±SEM (p<0.01).
# rats [2] = test: Hotplate assay; format: in vivo, rat; details: for MPE (I.P.) / Tmax (I.P.) of % MPE / MPE (oral) / Tmax (Oral) of % MPE: hotplate; for MPE (I.P.) / Tmax (I.P.) of % MPE: IP at 10 mg/kg; for MPE (oral) / Tmax (Oral) of % MPE: orally at 20 mg/kg
# Description: Animals. Experimentally naïve male Sprague-Dawley rats from Charles River Laboratories, Raleigh, N.C. (230-260 g) or Harlan, Prattville Ala. (240-280 g), were maintained 4 per cage in animal quarters on a regular light/dark cycle (lights on 0600-1800) with ad libitum food and water for approximately 1 week before the experiment. The range of body weights on the 2 days of testing was 230-260 grams. The experiment was done on one day, with animals allowed to recover for three days before experiments are repeated.
# Peptide Preparation. Test articles are prepared at the desired concentration in saline for either IP injection or gavage administration with N=6 for each dose and vehicle. Morphine (5 mg/kg) is used as a control for certain protocols. […] Apomorphine HCl (Sigma-Aldrich, St. Louis, Mo.) was dissolved in distilled water at a concentration of 5 mg/mL within 40 minutes of administration for injection at 1 mL/kg S.C. to give a dose of 5 mg/kg. When complete ED50s are determined, dosing range of the peptide will be 10, 3, 1, 0.3, 0.1 of the estimated ED50, covering two log orders of range.
# The Hotplate Assay. The hotplate assay, a standard rat model for […] pain (see Le Bars et al., Pharmacol. Rev. 53: 597-652 (2001) and Chapman et al., Pain 22:1-31 (2002)), was performed as follows. A hotplate maintained at 52° C. to 53° C. was enclosed on four sides in a plexiglass chamber that extended 6 in. above the plate. Animals were placed on the plate, and the latency between the time a rat was placed on the surface and when it lifts or licks a back paw (indicative of pain sensation) was determined. Animals are removed immediately at the cutoff latency of 30 seconds. Assays are scored as the percent of maximal possible effect (% MPE) defined as 100%, which corresponds to the rats remaining on the hotplate for 30 seconds without responding. Thus, % MPE are calculated using the following equation: % MPE=[(post-drug latency−pre-drug latency)/(cut-off pre-drug latency)]×100%. N=6 or greater for all experiments.
# Tmax indicates the time after dosing in which a maximum response was observed.
# [3] = Pharmacokinetics of ABS212 in plasma (LC/MS/MS); format: in vivo, rat
# Description: These samples were used for the determination of plasma parent drug concentrations by LC/MS/MS for estimating pharmacokinetic parameters and oral bioavailability.
# rats [4] = test: Tail flick assay; format: in vivo, rat; details: ABS212 10 mg/kg, Morphine 5 mg/kg
# Protocol: The Tail Flick Assay. Each of 6 rats per experiment were placed in a Plexiglas restraint box. A standard laboratory hot water bath was maintained at 49° C. The distal 3 cm of the rat's tail was submerged into the water, and the time from insertion to tail flick or removal of tail from the water was recorded. Animals are removed immediate4ly at the cutoff latency of 10 seconds. MPEs were calculated, with a MPE of 100% corresponding to the rat's tail remaining in the water bath for 10 seconds. This was repeated 3 times. The tail was dried and allowed to rest for 20 seconds between trials. The rat was then given the appropriate amount of peptide and the experiment repeated at 30 and 60 minutes. Treatment conditions were distributed over the study in a counterbalanced design to control for such factors as calendar period and order of dosing. N=6 or greater for all experiments.
# rats [5] = test: Formalin assay; format: in vivo, rat; details: ABS212 10 mg/kg, Morphine 5 mg/kg
# Protocol: Formalin Assay. […] Animals were scored every minute on the following scale: 0=forepaw flat on floor, 1=forepaw just touching floor, 2=forepaw held up off of floor, and 3=forepaw licked or bitten. […] The animals were immediately be placed into the observation cages, and their behavior recorded over the following 30 minutes. After each experiment, rats were euthanized with CO2 followed by cervical dislocation. An average Pain Rating over time versus the baseline and formalin-only controls for each peptide tested were plotted, and statistical analysis were performed using a one-way analysis of variance (ANOVA). Differences were considered statistically significant at the 5% confidence interval. N=6 or greater for all experiments.
# [6] = Brain distribution of ABS201 (LC/MS/MS)
# Description: (§1) At selected time points, blood was removed or brain harvested and the concentration of the peptide analog determined using LC/MS/MS.
# (§2) These samples were then used for the determination of plasma and brain drug levels by LC/MS/MS for estimating BBB penetration and pharmacokinetic parameters.
# [7] = Pharmacokinetics of ABS201 in blood/plasma (LC/MS/MS); details: SD, rat, in vivo, iv, 100 mg/kg
# Description: as §1, §2
# rats [8] = test: Clinical observation after high IV or PO dose; format: in vivo, rat
# Protocol: During the 2 and 24 hour post-dosing clinical observation periods, measurements of core body temperatures were taken.
# NTR-1 = NTR-1 (Homo sapiens, UniProt P30989); test: Competitive NTR binding versus radiolabeled NT[8-13]
# Sequence of NTR-1 (P30989 whole entry, species assumed): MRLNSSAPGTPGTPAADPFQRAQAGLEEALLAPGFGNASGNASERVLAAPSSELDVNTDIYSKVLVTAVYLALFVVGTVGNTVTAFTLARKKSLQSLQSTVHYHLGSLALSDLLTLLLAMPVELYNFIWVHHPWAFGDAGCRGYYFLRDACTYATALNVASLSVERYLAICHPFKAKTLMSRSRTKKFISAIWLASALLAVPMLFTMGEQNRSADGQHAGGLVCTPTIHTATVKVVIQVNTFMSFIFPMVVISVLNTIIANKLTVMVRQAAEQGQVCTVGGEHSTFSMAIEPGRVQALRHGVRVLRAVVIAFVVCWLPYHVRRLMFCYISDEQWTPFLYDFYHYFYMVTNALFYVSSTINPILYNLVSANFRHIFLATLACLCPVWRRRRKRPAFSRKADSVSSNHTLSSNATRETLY
# NTR-2 = NTR-2 (Homo sapiens, UniProt O95665); test: as above
# Sequence of NTR-2 (O95665 whole entry, species assumed): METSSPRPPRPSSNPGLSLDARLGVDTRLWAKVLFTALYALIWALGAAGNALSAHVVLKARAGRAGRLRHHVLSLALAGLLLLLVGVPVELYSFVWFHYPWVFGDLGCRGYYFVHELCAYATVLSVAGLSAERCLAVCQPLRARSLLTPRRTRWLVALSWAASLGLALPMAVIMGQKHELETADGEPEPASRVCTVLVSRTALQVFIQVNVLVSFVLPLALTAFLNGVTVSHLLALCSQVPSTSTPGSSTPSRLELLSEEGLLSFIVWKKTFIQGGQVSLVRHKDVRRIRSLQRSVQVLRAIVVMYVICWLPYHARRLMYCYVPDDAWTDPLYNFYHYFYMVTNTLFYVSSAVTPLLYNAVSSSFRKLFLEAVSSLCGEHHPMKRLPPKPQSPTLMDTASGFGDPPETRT
# rats [9] = test: Induced hypothermia (rectal temperature) after IP or oral administration; details: IP 5 mg/kg, Table 5
# Description: Hypothermia as a Preliminary Screen of CNS Activity.
# Animal Restraint. Rats were restrained in Plas-Labs® plastic cages fitted with wooden dowels to restrict movement. Rectal temperature probes (Physitemp®, RET-2, Clifton, N.J.), lubricated with mineral oil, were inserted into the rectum of each animal. Probes were connected to a microprobe thermometer (Physitemp®, BAT-12) in conjunction with a thermocouple selector (Physitemp®, SWT-5). Rats were allowed to acclimate to the cages for 1 hr prior to IP injection.
# Peptide Preparation. […] For oral administration, the test article was administered directly into the animals' stomach by gavaging. Controls involved the administration of 0.9% NaCl. Thus, peptides were dissolved in saline, and following the equilibration period, rats were given an IP injection of peptide (5 mg/kg) or saline (1 mL/kg). […]
# Hypothermia. […] For each rat, a thermistor probe was placed 4.5 cm into the rectum; baseline temperatures were recorded for 1 hr to allow habituation to the cages prior to injection of compound. […]
# The former activity is most easily monitored by measuring the extent of induced hypothermia (core body temperature loss), which is a measure of NTR-1 binding and agonism and thus antipsychotic activity. Hypothermia is followed routinely over time through insertion of a thermometer probe hooked up to a digital readout box into the anus of the rats.
# rats [10] = test: d-Amphetamine induced hyperlocomotion / locomotor activity chambers; format: in vivo, rat; details: rat, in vivo
# Description: Sound- and light-attenuated locomotor cages are used to measure the ability of potential candidates to decrease d-amphetamine-induced hyperactivity.
# d-Amphetamine induced hyperlocomotion. Experimentally I male Sprague-Dawley rats were housed as described above. Rats were handled for three days prior to testing to minimize experimenter induced hyperlocomotion on test day. For experiments, sound- and light-attenuated automated photocell beam activity chambers (AccuScan Instruments, Inc., Columbus, Ohio) were used to measure locomotion. Cages were connected to a VersaMax Analyzer (AccuScan) in conjunction with an IBM computer using VersaMax 1.80-0146 software (AccuScan) to record vertical and horizontal activity. Total activity values recorded were the sum of vertical and horizontal activity. […]
# Rats were placed in the activity chambers for 30 minutes to habituate and establish baseline activity levels. Then, rats were removed and given an IP or oral dose of peptide (N=7) or saline (N=8) and returned to the chamber to establish the peptide's effect on spontaneous activity levels. About 30 minutes after administration, rats were removed and given an IP injection of d-amphetamine (1 mg/kg) or vehicle and returned to the chamber for a further 1 hr to assess the effect of the peptide on induced hyperlocomotion.
# Chronic Testing Protocols.
# Separate two-factor ANOVAs for DOSE X TIME were performed for each different time-phase of the assay. Phases for the IP dosing and oral dosing experiments consisted of habituation (time points 10-60), drug (time points 70-120), and amphetamine (time points 130-240).
# rats [11] = details: rat, in vivo
# Protocol: as §3, §4
compound,measurement,setting,value
"O=C(CCCN1CCC(O)(c2ccc(Cl)cc2)CC1)c1ccc(F)cc1 [Haloperidol, reference compound]",duration of catalepsy,rats [1],greater than 30 sec
Arg-Arg-Pro-Tyr-tLeu-Leu [ABS237],MPE (I.P.),rats [2],50%
same,Tmax (I.P.) of % MPE,rats [2],30
[Orn]RPY[Tle]L [ABS233],MPE (I.P.),rats [2],51%
same,Tmax (I.P.) of % MPE,rats [2],45
CC(C)C[C@H](NC(=O)[C@@H](NC(=O)[C@H](Cc1ccc(O)cc1)NC(=O)[C@@H]1CCCN1C(=O)[C@H](CCCNC(=N)N)NC(=O)[C@@H](C)CCC[N+](C)(C)C)C(C)(C)C)C(=O)O [ABS-212.2HCL] (X2-RPY[Tle]L-OH),clearance as % of rat hepatic blood flow,[3]; IV bolus 1 mg/kg,32.33%
same,clearance as % of rat hepatic blood flow,[3]; IV bolus 5 mg/kg,12.08%
same,clearance as % of rat hepatic blood flow,[3]; IV bolus […],12.08%
Arg-Arg-Pro-Tyr-t-Leu-Leu [ABS213],MPE (I.P.),rats [2],48%
same,Tmax (I.P.) of % MPE,rats [2],30
Boc-Arg-Pro-Tyr-t-Leu-Leu [ABS700],MPE (I.P.),rats [2],51%
same,Tmax (I.P.) of % MPE,rats [2],90
KRPY[Tle]L [ABS229],MPE (I.P.),rats [2],48%
same,Tmax (I.P.) of % MPE,rats [2],60
"CN1CC[C@]23c4c5ccc(O)c4O[C@H]2[C@@H](O)C=C[C@H]3[C@H]1C5 [Morphine, reference compound]",MPE (0 min),rats [4],0.03 +/− 0.05
same,MPE (30 min),rats [4],63.7 +/− 41.9
same,MPE (60 min),rats [4],67.5 +/− 25.8
same,analgesic effect over the time course,rats [5],loses activity after 30 minutes
Lys-Arg-Pro-Tyr-t-Leu-Leu [ABS205],analgesic effect relative to ABS212,rats [2]; gavage 20 mg/kg,as much or more active than ABS212
same,MPE (I.P.),rats [2],86%
same,Tmax (I.P.) of % MPE,rats [2],15-30
same,MPE (oral),rats [2],66%
same,Tmax (Oral) of % MPE,rats [2],30
CC(C)C[C@H](NC(=O)[C@@H](NC(=O)[C@H](Cc1ccc(O)cc1)NC(=O)[C@@H]1CCCN1C(=O)[C@H](CCCNC(=N)N)NC(=O)[C@@H](C)CCCCCN)C(C)(C)C)C(=O)O [ABS201.2HCl] (X1-RPY[Tle]L-OH),AUC0-t in brain,[6]; 15 min intravenous infusion 100 mg/kg,60.96 ng·h/g
same,Cmax,"[6]; SD, rat, brain, iv, 100 mg/kg",32.9 ng/g
same,half-life,"[6]; SD, rat, brain, iv, 100 mg/kg",291 min
same,Vd,[7],16.1 L/kg
same,clearance,[7],380 mL/min/kg
CC(C)C[C@H](NC(=O)[C@@H](NC(=O)[C@H](Cc1ccc(O)cc1)NC(=O)[C@@H]1CCCN1C(=O)[C@H](CCCNC(=N)N)NC(=O)[C@@H](C)CCCCCN)C(C)(C)C)C(=O)O [ABS201 HCl] (X1-RPY[Tle]L-OH),clinical observation 24 hour post-dosing,rats [8]; IV 50 mg/kg,grossly normal; hypothermia was absent
same,clinical observation immediately after dosing,rats [8]; IV 50 mg/kg,obviously sedated
same,clinical observation two hour post-dosing,rats [8]; IV 50 mg/kg,marked hypothermia was present
same,clinical observation,rats [8]; PO 250 mg/kg,grossly normal at all time points
"CC(C)C[C@H](NC(=O)[C@@H](NC(=O)[C@H](Cc1ccc(O)cc1)NC(=O)[C@@H]1CCCN1C(=O)[C@H](CCCNC(=N)N)NC(=O)[C@H](CCCCCN)N=[N+]=[N-])C(C)(C)C)C(=O)O [ABS13, N3-L-homolysine-Arg-Pro-Tyr-tertLeu-Leu-COOH] (X5-RPY[Tle]L-OH)",IC50,NTR-1,5.7 ± 0.37 nM
same,IC50,NTR-2,11.1 ± 0.1 nM
[hLys]RPY[Tle]L [ABS225],MPE (I.P.),rats [2],100%
same,Tmax (I.P.) of % MPE,rats [2],15-45
same,MPE (oral),rats [2],38%
same,Tmax (Oral) of % MPE,rats [2],30
Orn-Arg-Pro-Tyr-t-Leu-Leu [ABS209],MPE (I.P.),rats [2],89%
same,Tmax (I.P.) of % MPE,rats [2],60
"CC[C@H](C)[C@H](NC(=O)[C@H](Cc1ccc(O)cc1)NC(=O)[C@@H]1CCCN1C(=O)[C@H](CCCNC(=N)N)NC(=O)[C@@H](N)CCCNC(=N)N)C(=O)N[C@@H](CC(C)C)C(=O)O [NT(8-13), NH2-Arg-Arg-Pro-Tyr-Ile-Leu-COOH, reference compound]",tmax (min) Time to maximal temperature decrease,rats [9],90 min
same,Δ in BT (° C.) Decrease in body temperature measured at tmax,rats [9],−0.45 ± 0.17^d ° C.
same,Hyperlocomotion Inhibition (routes of administration),rats [10],CNS administration
same,Inhibits locomotor activity (routes of administration),rats [10],CNS administration
same,catalepsy,rats [11],No

# Source: patent US20100130432A1, “Non-Natural Amino Acids and Neurotensin Analogues Thereof” (priority 2005, published 2010)
